Experimental data published in PubChem BioAssay AID1963960 (Molecular Pharmacology Branch, DTP, NCI, 2024).
pIC50: −log10 of the molar value.

Tested on: MDA-MB-468 spheroids with HUVEC/MSC, viability
Assay: Anticancer human tumor MDA-MB-468 cell line growth inhibition [PI3K];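 further: spheroids exposed to agents for seven days before readout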;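 on viability, T/C: 100% = DMSO vehicle control viability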
Details: for viability, T/C: stronger effect = lower value
Description: Combinatorial screen of targeted agents with the PI3K inhibitors inavolisib, alpelisib, duvelisib, and copanlisib in multi-cell type tumor spheroids
A high-throughput screen of multi-cell type tumor spheroids was designed to identify active combinations of targeted small molecules and PI3K pathway inhibitors. Complex spheroids include a stromal component modeled by human endothelial cells (HUVEC) and fibroblasts modeled by human mesenchymal stem cells (MSCs). The concentration ranges selected for each drug and investigational agent were based upon clinically achievable concentrations if the clinical Cmax of the agent was known.
Compounds. The drugs and investigational agents: inavolisib (NSC800729), alpelisib (NSC765974), duvelisib (NSC772469), copanlisib (NSC816437), ipatasertib (NSC767898), afuresertib (NSC778305), talazoparib (NSC767125), sapanisertib (NSC764658), selumetinib (NSC741078), tovorafenib (DAY101, NSC766906), vemurafenib (NSC761431), ravoxertinib (NSC781343), sotorasib (NSC818433), MRTX1133 (NSC 836407), abemaciclib (NSC 768073), palbociclib (NSC758247), venetoclax (NSC 766270), SY5609 (NSC837396), enzalutamide (NSC755605), and darolutamide (NSC825331), were obtained from the National Cancer Institute (NCI) Developmental Therapeutics Program Chemical Repository. The FDA-approved anticancer drug set is available from the NCI Developmental Therapeutics Program. […] The stock solutions were prepared in dimethyl sulfoxide (DMSO, Sigma-Aldrich, St. Louis, MO, cat. D2650) at 800-fold the tested concentration and stored at -70 degrees C prior to their use. All drugs and investigational agents were tested over a range starting from a high concentration at or near the clinical Cmax and decreasing in half-log increments. If the clinical Cmax for an agent had not been determined, the highest concentration tested was 10 microM.
Cell Culture. All cells were maintained in an incubator at 37 degrees C and 5% CO2 with 95% humidity. The PDC lines were cultured according to standard operating procedures established by the NCI PDMR (https://pdmr.cancer.gov/sops/default.htm). All PDCs were thawed and cultured in Matrigel-coated flasks prepared with a working solution of 1X Ham's F-12 nutrient mix, without supplementation (Invitrogen, Waltham, MA, cat. 11765054), 100 U/mL penicillin-streptomycin (Invitrogen, cat. 15140122), and 2.5% Matrigel (Corning Inc., Corning, NY, cat. 354248) for the first three passages. The 354836-022-R-J1-PDC, 475296-252-R-J1-PDC, and 997726-040-R-J2-PDC lines were cultured in 6A media, which includes advanced DMEM/F-12 (Thermo Fisher Scientific, cat. 12634028), 10 mM HEPES (Thermo Fisher Scientific, cat. 15630080), 1X GlutaMAX supplement (Thermo Fisher Scientific, cat. 35050061), 0.1 mg/mL primocin (InvivoGen, San Diego, CA, cat. ant-pm-2), 10% defined fetal bovine serum, heat inactivated (HyClone Laboratories Inc., Logan, UT, cat. SH30070.03HI), 50% L-WRN conditioned media (ATCC, cat. CRL-3276), 1.25 mM N-Acetyl-L-cysteine (Sigma-Aldrich, cat. A9165), 10 mM nicotinamide (Sigma-Aldrich, cat. N0636), 1X B-27 supplement (Thermo Fisher Scientific, cat. 17504044), 1X N-2 supplement (Thermo Fisher Scientific, cat. 17502048), and 10 microM Y-27632 dihydrochloride (Tocris Bioscience, Bristol, United Kingdom, cat. 1254). The 624824-186-R-J2-PDC line was cultured in 6C/Colon 1B media, which includes all 6A media components plus 50 ng/mL human EGF recombinant protein (Thermo Fisher Scientific, cat. PHG0311). […]

[1] = curve of first compound, second compound 0.00316 µM
[2] = curve of first compound, second compound 0.01 µM
[3] = curve of first compound, second compound 0.0316 µM
[4] = curve of first compound, second compound 0.1 µM
[5] = curve of first compound, second compound 0.316 µM
[6] = curve of first compound, second compound 1 µM
[7] = second compound 0.00316 µM, first compound 0.0316 µM
[8] = second compound 0.00316 µM, first compound 0.1 µM
[9] = second compound 0.00316 µM, first compound 0.316 µM
[10] = second compound 0.00316 µM, first compound 1 µM
[11] = second compound 0.01 µM, first compound 0.0316 µM
[12] = second compound 0.01 µM, first compound 0.1 µM
[13] = second compound 0.01 µM, first compound 0.316 µM
[14] = second compound 0.01 µM, first compound 1 µM
[15] = second compound 0.0316 µM, first compound 0.0316 µM
[16] = second compound 0.0316 µM, first compound 0.1 µM
[17] = second compound 0.0316 µM, first compound 0.316 µM
[18] = second compound 0.0316 µM, first compound 1 µM
[19] = second compound 0.1 µM, first compound 0.0316 µM
[20] = second compound 0.1 µM, first compound 0.1 µM
[21] = second compound 0.1 µM, first compound 0.316 µM
[22] = second compound 0.1 µM, first compound 1 µM
[23] = second compound 0.316 µM, first compound 0.0316 µM
[24] = second compound 0.316 µM, first compound 0.1 µM
[25] = second compound 0.316 µM, first compound 0.316 µM
[26] = second compound 0.316 µM, first compound 1 µM
[27] = second compound 1 µM, first compound 0.0316 µM
[28] = second compound 1 µM, first compound 0.1 µM
[29] = second compound 1 µM, first compound 0.316 µM
[30] = second compound 1 µM, first compound 1 µM
[31] = second compound 0.00316 µM, first compound 3.16 µM
[32] = second compound 0.00316 µM, first compound 10 µM
[33] = second compound 0.01 µM, first compound 3.16 µM
[34] = second compound 0.01 µM, first compound 10 µM
[35] = second compound 0.0316 µM, first compound 3.16 µM
[36] = second compound 0.0316 µM, first compound 10 µM
[37] = second compound 0.1 µM, first compound 3.16 µM
[38] = second compound 0.1 µM, first compound 10 µM
[39] = second compound 0.316 µM, first compound 3.16 µM
[40] = second compound 0.316 µM, first compound 10 µM
[41] = second compound 1 µM, first compound 3.16 µM
[42] = second compound 1 µM, first compound 10 µM

Cn1ncnc1[C@H]1c2n[nH]c(=O)c3cc(F)cc(c23)N[C@@H]1c1ccc(F)cc1
viability, T/C (compound 0.000316 µM): 95.9% [middle of 4 runs] | viability, T/C (compound 0.001 µM): 93.9% [middle of 4 runs] | viability, T/C (compound 0.00316 µM): 85.1% [middle of 4 runs] | viability, T/C (compound 0.01 µM): 82.2% [middle of 4 runs] | viability, T/C (compound 0.0316 µM): 87.3% [middle of 4 runs] | viability, T/C (compound 0.1 µM): 56.5% [middle of 4 runs] | pIC50 (curve of compound): < 7.00

CCN1CCN(Cc2ccc(Nc3ncc(F)c(-c4cc(F)c5nc(C)n(C(C)C)c5c4)n3)nc2)CC1 + COc1c(OCCCN2CCOCC2)ccc2c3n(c(=NC(=O)c4cnc(N)nc4)nc12)CCN3
pIC50 [1]: < 6.00 | pIC50 [2]: < 6.00 | pIC50 [3]: < 6.00 | pIC50 [4]: < 6.00 | pIC50 [5]: > 8.50 | pIC50 [6]: > 8.50 | viability, T/C (second compound 0.00316 µM, first compound 0.00316 µM): 96.9% | viability, T/C (second compound 0.00316 µM, first compound 0.01 µM): 90.8% | viability, T/C [7]: 88.2% | viability, T/C [8]: 96.8% | viability, T/C [9]: 99.5% | viability, T/C [10]: 69.9% | viability, T/C (second compound 0.01 µM, first compound 0.00316 µM): 85.3% | viability, T/C (second compound 0.01 µM, first compound 0.01 µM): 88.8% | viability, T/C [11]: 82% | viability, T/C [12]: 88.8% | viability, T/C [13]: 84.2% | viability, T/C [14]: 54.4% | viability, T/C (second compound 0.0316 µM, first compound 0.00316 µM): 77% | viability, T/C (second compound 0.0316 µM, first compound 0.01 µM): 72.2% | viability, T/C [15]: 77.5% | viability, T/C [16]: 73.6% | viability, T/C [17]: 81.4% | viability, T/C [18]: 66.1% | viability, T/C (second compound 0.1 µM, first compound 0.00316 µM): 56.6% | viability, T/C (second compound 0.1 µM, first compound 0.01 µM): 72.4% | viability, T/C [19]: 61.9% | viability, T/C [20]: 59% | viability, T/C [21]: 64% | viability, T/C [22]: 40.3% | viability, T/C (second compound 0.316 µM, first compound 0.00316 µM): 26.9% | viability, T/C (second compound 0.316 µM, first compound 0.01 µM): 25.1% | viability, T/C [23]: 28.1% | viability, T/C [24]: 29.9% | viability, T/C [25]: 31.7% | viability, T/C [26]: 24.4% | viability, T/C (second compound 1 µM, first compound 0.00316 µM): 4.09% | viability, T/C (second compound 1 µM, first compound 0.01 µM): 4.14% | viability, T/C [27]: 2.96% | viability, T/C [28]: 4.33% | viability, T/C [29]: 6.64% | viability, T/C [30]: 9.9%

Cn1nccc1Nc1nccc(-c2ccn(C(CO)c3ccc(Cl)c(F)c3)c(=O)c2)n1 (centres undefined) + CC(Nc1ccc2c(c1)OCCn1cc(N3C(=O)OCC3C(F)F)nc1-2)C(N)=O
pIC50 [1]: < 5.00 | pIC50 [2]: < 5.00 | pIC50 [3]: < 5.00 | pIC50 [4]: < 5.00 | pIC50 [5]: < 5.00 | pIC50 [6]: < 5.00 | viability, T/C [7]: 85.3% | viability, T/C [8]: 96.8% | viability, T/C [9]: 87.2% | viability, T/C [10]: 90.4% | viability, T/C [31]: 96.1% | viability, T/C [32]: 87.9% | viability, T/C [11]: 97% | viability, T/C [12]: 89.1% | viability, T/C [13]: 87.8% | viability, T/C [14]: 94.9% | viability, T/C [33]: 101% | viability, T/C [34]: 82.6% | viability, T/C [15]: 95.3% | viability, T/C [16]: 86.6% | viability, T/C [17]: 88.6% | viability, T/C [18]: 80.1% | viability, T/C [35]: 108% | viability, T/C [36]: 77.8% | viability, T/C [19]: 88% | viability, T/C [20]: 89.2% | viability, T/C [21]: 77.7% | viability, T/C [22]: 81% | viability, T/C [37]: 87.5% | viability, T/C [38]: 73.1% | viability, T/C [23]: 90% | viability, T/C [24]: 82.5% | viability, T/C [25]: 89.6% | viability, T/C [26]: 87.6% | viability, T/C [39]: 82.7% | viability, T/C [40]: 60.7% | viability, T/C [27]: 85.5% | viability, T/C [28]: 74.3% | viability, T/C [29]: 74.7% | viability, T/C [30]: 74.8% | viability, T/C [41]: 81.2% | viability, T/C [42]: 55.2%

CCCS(=O)(=O)Nc1ccc(F)c(C(=O)c2c[nH]c3ncc(-c4ccc(Cl)cc4)cc23)c1F + COc1c(OCCCN2CCOCC2)ccc2c3n(c(=NC(=O)c4cnc(N)nc4)nc12)CCN3
pIC50 [1]: 5.29 | pIC50 [2]: 5.27 | pIC50 [3]: 5.35 | pIC50 [4]: 5.68 | pIC50 [5]: > 7.50 | pIC50 [6]: > 7.50 | viability, T/C [7]: 84.8% | viability, T/C [8]: 102% | viability, T/C [9]: 84.6% | viability, T/C [10]: 102% | viability, T/C [31]: 74.1% | viability, T/C [32]: 17.9% | viability, T/C [11]: 84.2% | viability, T/C [12]: 82.3% | viability, T/C [13]: 93.9% | viability, T/C [14]: 84.3% | viability, T/C [33]: 75.6% | viability, T/C [34]: 20% | viability, T/C [15]: 74.1% | viability, T/C [16]: 78.2% | viability, T/C [17]: 76.5% | viability, T/C [18]: 74.3% | viability, T/C [35]: 64.9% | viability, T/C [36]: 16.2% | viability, T/C [19]: 55.8% | viability, T/C [20]: 56.5% | viability, T/C [21]: 64.7% | viability, T/C [22]: 59.1% | viability, T/C [37]: 45.2% | viability, T/C [38]: 12.3% | viability, T/C [23]: 28.1% | viability, T/C [24]: 29.7% | viability, T/C [25]: 29.1% | viability, T/C [26]: 27.6% | viability, T/C [39]: 26.6% | viability, T/C [40]: 8.09% | viability, T/C [27]: 4.14% | viability, T/C [28]: 4.88% | viability, T/C [29]: 4.04% | viability, T/C [30]: 5.95% | viability, T/C [41]: 5.41% | viability, T/C [42]: 3.73%

Cc1nc(NC(=O)N2CCCC2C(N)=O)sc1-c1ccnc(C(C)(C)C(F)(F)F)c1 (centres undefined)
viability, T/C (compound 0.0316 µM): 89% [middle of 8 runs] | viability, T/C (compound 0.1 µM): 83.7% [middle of 8 runs] | viability, T/C (compound 0.316 µM): 81.1% [middle of 8 runs] | viability, T/C (compound 1 µM): 77.9% [middle of 8 runs] | viability, T/C (compound 3.16 µM): 70.2% [middle of 7 runs] | viability, T/C (compound 10 µM): 44.1% [middle of 8 runs]
